Data: patent US9115127B2 (AMGEN INC., priority 2010, dated 2015)

Target: T1, wild-type human ALK (cytoplasmic domain, amino acids 1058-1620, N-terminal GST fusion) (Homo sapiens, UniProt Q9UM73)
T1 construct: The cytoplasmic domain (amino acids 1058-1620) of wild-type human ALK; GST (N); made in house; host or cells: SF9 insect cells
Experiment: ALK Inhibition in Enzyme Assay (Lance TR-FRET kinase assay)
Type: biochemical
Summary of the method: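 Purified enzyme phosphorylated a biotinylated peptide substrate for 90 minutes at room temperature. Reactions were stopped with 20 mM EDTA in 50 mM Tris (pH 7.5), 100 mM NaCl, 0.05% BSA, 0.1% Tween-20. Phosphopeptide was detected by TR-FRET with SA-APC and Eu-W1024 anti-phosphotyrosine antibody PT66, excitation 320 nm.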

T1 sequence (Q9UM73 1058-1620): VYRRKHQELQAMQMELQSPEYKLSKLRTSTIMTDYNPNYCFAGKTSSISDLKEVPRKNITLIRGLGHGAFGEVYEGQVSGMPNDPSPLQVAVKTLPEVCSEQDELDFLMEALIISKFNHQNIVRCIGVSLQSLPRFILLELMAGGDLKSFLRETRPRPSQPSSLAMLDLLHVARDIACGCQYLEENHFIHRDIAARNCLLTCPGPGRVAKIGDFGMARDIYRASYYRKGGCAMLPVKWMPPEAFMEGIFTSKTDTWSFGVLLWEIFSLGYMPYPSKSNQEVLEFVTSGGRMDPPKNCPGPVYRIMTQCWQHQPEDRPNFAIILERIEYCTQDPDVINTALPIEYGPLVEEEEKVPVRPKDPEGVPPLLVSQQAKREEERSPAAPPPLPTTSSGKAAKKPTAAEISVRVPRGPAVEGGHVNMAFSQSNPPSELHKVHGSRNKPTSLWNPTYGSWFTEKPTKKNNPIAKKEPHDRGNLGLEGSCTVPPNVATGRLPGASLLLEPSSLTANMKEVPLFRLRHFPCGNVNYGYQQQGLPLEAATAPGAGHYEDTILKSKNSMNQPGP

Structure (SMILES): CC(C)NC(=O)[C@H]1CC[C@@H](n2/c(=N/C(=O)c3ccc(F)cc3)[nH]c3ccc(CN4CCC(CNCC(F)(F)F)CC4)cc32)CC1 [Example 190, (E)-4-Fluoro-N-(1-(cis-4-(isopropylcarbamoyl)cyclohexyl)-6-((4-((2,2,2-trifluoroethylamino)methyl)piperidin-1-yl)methyl)-1H-benzo[d]imidazol-2(3H)-ylidene)benzamide]
- IC50: < 50 nM

Structure (SMILES): CC(C)NC(=O)[C@H]1CC[C@@H](n2/c(=N/C(=O)c3ccc(F)cc3)[nH]c3ccc(CN4CCC(F)(F)CC4)cc32)CC1 [Example 191, (E)-N-(6-((4,4-Difluoropiperidin-1-yl)methyl)-1-(cis-4-(isopropylcarbamoyl)cyclohexyl)-1H-benzo[d]imidazol-2(3H)-ylidene)-4-fluorobenzamide]
- IC50: < 50 nM

Structure (SMILES): COCc1ccc2[nH]/c(=N\C(=O)c3ccc(F)cc3)n([C@H]3CC[C@@H](C(=O)NC(C)C)CC3)c2c1 [Example 192, (E)-4-Fluoro-N-(1-(cis-4-(isopropylcarbamoyl)cyclohexyl)-6-(methoxymethyl)-1H-benzo[d]imidazol-2(3H)-ylidene)benzamide]
- IC50: < 50 nM

Structure (SMILES): CC(C)NC(=O)[C@H]1CC[C@@H](n2/c(=N/C(=O)c3ccc(F)cc3)[nH]c3ccc(Cn4cnnc4)cc32)CC1 [Example 195, (E)-N-(6-((4H-1,2,4-Triazol-4-yl)methyl)-1-(cis-4-(isopropylcarbamoyl)cyclohexyl)-1H-benzo[d]imidazol-2(3H)-ylidene)-4-fluorobenzamide]
- IC50: < 50 nM

Structure (SMILES): CC(C)NC(=O)[C@H]1CC[C@@H](n2/c(=N/C(=O)c3ccc(F)cc3)[nH]c3ccc(CN4CCC(F)(F)C4)cc32)CC1 [Example 196, (E)-N-(6-((3,3-Difluoropyrrolidin-1-yl)methyl)-1-(cis-4-(isopropylcarbamoyl)cyclohexyl)-1H-benzo[d]imidazol-2(3H)-ylidene)-4-fluorobenzamide]
- IC50: < 50 nM

Structure (SMILES): CC(C)NC(=O)[C@H]1CC[C@@H](n2/c(=N/C(=O)c3ccc(F)cc3)[nH]c3ccc(Cn4cccn4)cc32)CC1 [Example 197, (E)-N-(6-((1H-Pyrazol-1-yl)methyl)-1-(cis-4-(isopropylcarbamoyl)cyclohexyl)-1H-benzo[d]imidazol-2(3H)-ylidene)-4-fluorobenzamide]
- IC50: < 50 nM

Structure (SMILES): COCCOCc1ccc2[nH]/c(=N\C(=O)c3ccc(F)cc3)n([C@H]3CC[C@@H](C(=O)NC(C)C)CC3)c2c1 [Example 198, (E)-4-Fluoro-N-(1-(cis-4-(isopropylcarbamoyl)cyclohexyl)-6-((2-methoxyethoxy)methyl)-1H-benzo[d]imidazol-2(3H)-ylidene)benzamide]
- IC50: < 50 nM

Structure (SMILES): CC(C)(CO)NC(=O)[C@H]1CC[C@@H](n2/c(=N/C(=O)c3ccc(F)cc3)[nH]c3ccc(CN4CCOCC4)cc32)CC1 [Example 199, (E)-4-Fluoro-N-(1-(cis-4-(1-hydroxy-2-methylpropan-2-ylcarbamoyl)cyclohexyl)-6-(morpholinomethyl)-1H-benzo[d]imidazol-2(3H)-ylidene)benzamide]
- IC50: < 50 nM

Structure (SMILES): C[C@H](CO)NC(=O)[C@H]1CC[C@@H](n2/c(=N/C(=O)c3ccc(F)cc3)[nH]c3ccc(CN4CCOCC4)cc32)CC1 [Example 200, (E)-4-Fluoro-N-(1-(cis-4-((R)-1-hydroxypropan-2-ylcarbamoyl)cyclohexyl)-6-(morpholinomethyl)-1H-benzo[d]imidazol-2(3H)-ylidene)benzamide]
- IC50: < 50 nM

Structure (SMILES): O=C(/N=c1\[nH]c2ccc(CN3CCOCC3)cc2n1[C@H]1CC[C@@H](C(=O)NCCO)CC1)c1ccc(F)cc1 [Example 201, (E)-4-Fluoro-N-(1-(cis-4-(2-hydroxyethylcarbamoyl)cyclohexyl)-6-(morpholinomethyl)-1H-benzo[d]imidazol-2(3H)-ylidene)benzamide]
- IC50: < 50 nM

Structure (SMILES): O=C(/N=c1\[nH]c2ccc(CN3CCOCC3)cc2n1[C@H]1CC[C@@H](C(=O)N2CCOCC2)CC1)c1ccc(F)cc1 [Example 202, (E)-4-Fluoro-N-(1-(cis-4-(morpholine-4-carbonyl)cyclohexyl)-6-(morpholinomethyl)-1H-benzo[d]imidazol-2(3H)-ylidene)benzamide]
- IC50: 100 to 1000 nM

Structure (SMILES): CN1CCN(C(=O)[C@H]2CC[C@@H](n3/c(=N/C(=O)c4ccc(F)cc4)[nH]c4ccc(CN5CCOCC5)cc43)CC2)CC1 [Example 203, (E)-4-Fluoro-N-(1-(cis-4-(4-methylpiperazine-1-carbonyl)cyclohexyl)-6-(morpholinomethyl)-1H-benzo[d]imidazol-2(3H)-ylidene)benzamide]
- IC50: 100 to 1000 nM

Structure (SMILES): O=C(/N=c1\[nH]c2ccc(CN3CCOCC3)cc2n1[C@H]1CC[C@@H](C(=O)N2CCNCC2)CC1)c1ccc(F)cc1 [Example 204, (E)-4-Fluoro-N-(6-(morpholinomethyl)-1-(cis-4-(piperazine-1-carbonyl)cyclohexyl)-1H-benzo[d]imidazol-2(3H)-ylidene)benzamide]
- IC50: < 50 nM

Structure (SMILES): NC(=O)[C@H]1CC[C@@H](n2/c(=N/C(=O)c3ccc(F)cc3)[nH]c3ccc(CN4CCOCC4)cc32)CC1 [Example 205, (E)-N-(1-(cis-4-Carbamoylcyclohexyl)-6-(morpholinomethyl)-1H-benzo[d]imidazol-2(3H)-ylidene)-4-fluorobenzamide]
- IC50: < 50 nM

Structure (SMILES): CC(C)(O)CNC(=O)[C@H]1CC[C@@H](n2/c(=N/C(=O)c3ccc(F)cc3)[nH]c3ccc(CN4CCOCC4)cc32)CC1 [Example 206, (E)-4-Fluoro-N-(1-(cis-4-(2-hydroxy-2-methylpropylcarbamoyl)-cyclohexyl)-6-(morpholinomethyl)-1H-benzo[d]imidazol-2(3H)-ylidene)benzamide]
- IC50: 50 to 100 nM

Structure (SMILES): O=C(/N=c1\[nH]c2ccc(CN3CCOCC3)cc2n1[C@H]1CC[C@@H](C(=O)NO)CC1)c1ccc(F)cc1 [Example 207, (E)-4-Fluoro-N-(1-(cis-4-(hydroxycarbamoyl)cyclohexyl)-6-(morpholinomethyl)-1H-benzo[d]imidazol-2(3H)-ylidene)benzamide]
- IC50: 50 to 100 nM

Structure (SMILES): CONC(=O)[C@H]1CC[C@@H](n2/c(=N/C(=O)c3ccc(F)cc3)[nH]c3ccc(CN4CCOCC4)cc32)CC1 [Example 208, (E)-4-Fluoro-N-(1-(cis-4-(methoxycarbamoyl)cyclohexyl)-6-(morpholinomethyl)-1H-benzo[d]imidazol-2(3H)-ylidene)benzamide]
- IC50: < 50 nM

Structure (SMILES): COC(=O)[C@H]1CC[C@@H](n2/c(=N/C(=O)c3ccc(F)cc3)[nH]c3ccc(CN4CCC(C(C)(C)O)CC4)cc32)CC1 [Example 209, cis-Methyl 4-((E)-2-(4-fluorobenzoylimino)-6-((4-(2-hydroxypropan-2-yl)piperidin-1-yl)methyl)-2,3-dihydro-1H-benzo[d]imidazol-1-yl)cyclohexanecarboxylate]
- IC50: < 50 nM

Structure (SMILES): CC(C)(O)C1CCN(Cc2ccc3[nH]/c(=N\C(=O)c4ccc(F)cc4)n([C@H]4CC[C@@H](C(=O)O)CC4)c3c2)CC1 [Example 210, cis-4-((E)-2-(4-Fluorobenzoylimino)-6-((4-(2-hydroxypropan-2-yl)piperidin-1-yl)methyl)-2,3-dihydro-1H-benzo[d]imidazol-1-yl)cyclohexanecarboxylic acid]
- IC50: 100 to 1000 nM

Structure (SMILES): CC(C)(O)C1CCN(Cc2ccc3[nH]/c(=N\C(=O)c4ccc(F)cc4)n([C@H]4CC[C@@H](C(=O)N5CCNCC5)CC4)c3c2)CC1 [Example 211, (E)-4-Fluoro-N-(6-((4-(2-hydroxypropan-2-yl)piperidin-1-yl)methyl)-1-(cis-4-(piperazine-1-carbonyl)cyclohexyl)-1H-benzo[d]imidazol-2(3H)-ylidene)benzamide]
- IC50: < 50 nM

Structure (SMILES): CC(C)(O)C1CCN(Cc2ccc3[nH]/c(=N\C(=O)c4ccc(F)cc4)n([C@H]4CC[C@@H](C(N)=O)CC4)c3c2)CC1 [Example 212, (E)-N-(1-(cis-4-Carbamoylcyclohexyl)-6-((4-(2-hydroxypropan-2-yl)piperidin-1-yl)methyl)-1H-benzo[d]imidazol-2(3H)-ylidene)-4-fluorobenzamide]
- IC50: < 50 nM

Structure (SMILES): CONC(=O)[C@H]1CC[C@@H](n2/c(=N/C(=O)c3ccc(F)cc3)[nH]c3ccc(CN4CCC(C(C)(C)O)CC4)cc32)CC1 [Example 213, (E)-4-Fluoro-N-(6-((4-(2-hydroxypropan-2-yl)piperidin-1-yl)methyl)-1-(cis-4-(methoxycarbamoyl)cyclohexyl)-1H-benzo[d]imidazol-2(3H)-ylidene)benzamide]
- IC50: < 50 nM

Structure (SMILES): CC(C)(CO)NC(=O)[C@H]1CC[C@@H](n2/c(=N/C(=O)c3ccc(F)cc3)[nH]c3ccc(CN4CCC(C(C)(C)O)CC4)cc32)CC1 [Example 214, (E)-4-Fluoro-N-(1-(cis-4-(1-hydroxy-2-methylpropan-2-ylcarbamoyl)cyclohexyl)-6-((4-(2-hydroxypropan-2-yl)piperidin-1-yl)methyl)-1H-benzo[d]imidazol-2(3H)-ylidene)benzamide]
- IC50: < 50 nM

Structure (SMILES): CC(C)(C)NC(=O)[C@H]1CC[C@@H](n2/c(=N/C(=O)c3ccc(F)cc3)[nH]c3ccc(CN4CCC(C(C)(C)O)CC4)cc32)CC1 [Example 215, (E)-N-(1-(cis-4-(tert-Butylcarbamoyl)cyclohexyl)-6-((4-(2-hydroxypropan-2-yl)piperidin-1-yl)methyl)-1H-benzo[d]imidazol-2(3H)-ylidene)-4-fluorobenzamide]
- IC50: < 50 nM

Structure (SMILES): CC(C)(O)C1CCN(Cc2ccc3[nH]/c(=N\C(=O)c4ccc(F)cc4)n([C@H]4CC[C@@H](C(=O)N5CCCCC5)CC4)c3c2)CC1 [Example 216, (E)-4-Fluoro-N-(6-((4-(2-hydroxypropan-2-yl)piperidin-1-yl)methyl)-1-(cis-4-(piperidine-1-carbonyl)cyclohexyl)-1H-benzo[d]imidazol-2(3H)-ylidene)benzamide]
- IC50: < 50 nM
